Assay results taken from US20210267251A1, “COMPOSITIONS AND METHODS USING A NICOTINAMIDE ADENINE DINUCLEOTIDE (NAD+) PRECURSOR AND AT LEAST ONE KETONE OR KETONE PRECURSOR” (SOCIETE DES PRODUITS NESTLE S.A., priority 2018, published 2021).

System: human iPSC-derived astrocytes
Assay: Oxygen consumption (mitochondrial respiration) in human iPSC-derived astrocytes, Seahorse XF96
Assay type: cell-based
Conditions: hiPSC-derived astrocytes; NR 0.5 mM for 24 hours; ketone bodies BHB (0.5 mM or 2 mM) or BHP for 1 h in KRBH 1 mM glucose; uncoupled with FCCP 1 μM; FIG. 6
Experimental: Differentiated human iPSC astrocytes were obtained from Cellular Dynamics International (CDI, Madison, Wis., USA). The cells were thawed according to the manufacturer's instructions. iCell astrocytes were cultured in DMEM supplemented with 10% fetal calf serum and N2 complement. Oxygen consumption in human iPSC-derived astrocytes was measured in a Seahorse XF96 instrument (Seahorse Bioscience, North Billerica, Mass., USA). Astrocytes were seeded directly into Seahorse 96-well tissue culture plates (XF96 FluxPaks no. 102416-100; Seahorse Bioscience) at a density of 40,000 cells per well. Cells were incubated for 24 hours with 0.5 mM of Nicotinamide riboside chloride (NR) or fresh medium before experiment. Four days after seeding, the cells were washed twice in KRBH 1 mM glucose and incubated for 1 h with the ketone bodies BHB (racemic (D,L) BHB) or BHP (D BHP) at the concentration indicated. The cells were maintained at 37° C. during the experiment. Mitochondrial respiration rates were determined every 6 minutes. […] The oxygen consumption rate in hiPSC-derived astrocytes was measured as an indication of mitochondrial function, using a Seahorse instrument. Through addition of the uncoupling agent FCCP, uncoupled (=maximal) respiration was determined.

For `NC(=O)c1ccc[n+]([C@@H]2O[C@H](CO)[C@@H](O)[C@H]2O)c1` [NR, Nicotinamide riboside chloride], the “maximal (uncoupled) respiration, oxygen consumption rate” value was “Neither ketone bodies alone nor NR treatment significantly increases maximal respiration”.
